# Patent US11207331B2, “Agents, compositions and methods for enhancing neurological function” (University of Southern California, priority 2007, dated 2021)
# Entries after “also recorded” stand apart in the source; their conditions may differ.
# Columns and labels:
# β-amyloid = β-amyloid expression with antibody 6E10 (Western blot, immunostaining); format: in vivo, mouse; details: for decrease of 56 kDa β-amyloid (Aβ*56) band intensity vs vehicle: cortex
# Method: In a pilot project to determine the impact of longterm exposure to THP, the impact of THP, 10 mg/kg s.c. thrice weekly for 3 months, on the progression of Alzheimer's disease (AD) pathology in 3-6 month old 3×TgAD mice was investigated. Mouse brain hemisphere sections were immunostained with specific antibody (6E10) against Aβ or HT7, which recognizes tau and PHF-tau between residue 159 and 163 and visualized with FITC conjugated second antibody.
# In another experiment, THP (10 mg/kg/week, administered once a week for 6 months) was administered to 9- and 12-month male mice transgenic for Alzheimer's disease (3×Tg-AD). The 9 month old animals were started on THP at 3 months of age prior to the development of beta amyloid, whereas the 12 month old animals were begun at 6 months of age when beta amyloid had already begun to accumulate within neurons. Typically, the development of intraneuronal beta amyloid is seen in 6 and 9 month old animals and the development of plaques in 12 month old animals. Plaques are rarely seen in 9 month old animals.
# Brain sections were stained with beta amyloid antibody 6E10.
# THP (10 mg/kg) or vehicle was transdermal treated once a week to 3-month-old 3×Tg-AD mice for 6 months. Western blot analysis was conducted using brain protein from hippocampus with beta amyloid antibody 6E10, which recognizes the abnormally processed isoforms, as well as precursor forms of beta amyloid protein.
# THP (10 mg/kg) or vehicle was subcutaneously administered once a month, once per week for 6 months, or once every other day for 3 months. Brain sections of treated mice were stained with beta amyloid antibody 6E10 which recognizes the abnormally processed isoforms, as well as precursor forms of beta amyloid protein.
# Further studies were conducted using a dosing regime of once a week for six months administered subcutaneously. Three and six months old 3×Tg-AD and age-matched non-Tg mice were chosen for the experiments, since AD pathology (Aβ) starts development at 3-month and abundant accumulation at 6-months. Allopregnanolone was subcutaneously (s.c.) administrated with 10 mg/kg once per week for 6 months. For neurogenesis and neurosurvival study, BrdU, IdU and CIdU were intraperitoneal (i.p.) injected at the first 5 days, mid 5 days and 5 days before sacrifice during 6-month treatment. After 6 months of allopregnanolone treatment, mice, at 9- and 12-month old, were sacrificed.
# Western blot analysis was conducted using brain protein from frontal-parietal-temporal cortex with beta amyloid antibody 6E10, which recognizes the abnormally processed isoforms, as well as precursor forms of beta amyloid protein. The expression of different forms of beta amyloid in 3×Tg-AD mice was characterized.
# hippocampal neurons = experiment: Expression of cell proliferating markers Ki-67 and cdc2 in hippocampal neurons; format: cell-based, rat
# Source text: Expression of cell cycle proteins have been successfully used to evaluate cellular proliferation. One such protein is the nuclear proliferation protein, Ki-67, which is expressed during the G1, S, G2, and M phases of the cell cycle, but is not expressed during the Go (resting) phase. Because Ki-67 antigen has a short half-life, it can be used as a marker of actively proliferating cells. Another cell cycle protein is cell division control protein 2 (cdc2) which is a cyclin dependent kinase (also called CDK1) which plays a crucial role in the G1/S and G2/M phase. If THP induces neuronal proliferation, cell proliferation markers should be elevated.
# Hippocampal neurons were treated with THP at a concentration of 250 nM for 72 hours and immunostained with antibodies for the nuclear proliferation marker, ki-67 antigen, which appears yellow. […] The cell cycle protein cdc2 is also observed in a dose dependent fashion (see FIG. 4).
# For this experiment, neurons were collected following 24 hrs of THP exposure. Forty μg protein of the total cell lysate was loaded and separated by 12% SDS-gel using antibody (Ahcom) specifically against cdc2- and analyzed using Un-Scan-It image software (Ilk Scientific Corp.).
# phosphorylated tau = experiment: Phospho-tau immunoreactivity; format: in vivo, mouse
# [1] = system: hippocampus of 3×TgAD mice; experiment: Long-term treatment with BrdU, IdU and CldU labelling; format: in vivo, mouse; details: 10 mg/kg once a week for 6 months, begun at 3 or 6 months of age
# Method: In yet another study, THP (10 mg/kg once a week for 6 months) was administered to mice beginning at 3 months or 6 months of age. The cell proliferation marker, 5-bromodeoxyuridine (BrdU) was injected (100 mg/kg) one hour after initial THP treatment and once per day for the next four days to detect cell proliferation and cell survival over the six month treatment period. After 3 months treatment, the mice were injected 5 times with another nucleotide analog iododeoxyuridine (one per day). After 6 months treatment, the mice were injected with chlorodeoxyuridine (CldU) 5 times (once per day). Using specific antibodies, BrdU, IdU, and CldU incorporated cells will identify the 6 month survival, 3 month survival, and newly formed cells respectively. The mice were then sampled for biochemical, IHC, and flow cytometry assay. The results from mice with THP treatment initiated at 3 months old are shown in FIGS. 20B and 20C and initiated at 6 months old are shown in FIGS. 20D and 20E. The aim was to determine whether or not desensitization to THP was occurring.
# [2] = 10 mg/kg once a week for six months
# [3] = 3×Tg-AD mice, once a week for 6 months
smiles,measurement,setting,value
"CC(=O)[C@H]1CC[C@H]2[C@@H]3CC[C@H]4C[C@H](O)CC[C@]4(C)[C@H]3CC[C@]12C [THP, 3α-hydroxy-5α-pregnan-20-one]",immunocytochemical detection of Abeta*56,β-amyloid; [2],substantially decreases Abeta*56 in hippocampal neurons
same,6E10 immunoreactivity,β-amyloid; 10 mg/kg s.c. every other day for 3 months or once a week for 6 months,significantly decreases 6E10 immunoreactivity
same,6E10 immunoreactivity,β-amyloid; 10 mg/kg s.c. once a month,no effect
same,6E10 / intraneuronal Aβ immunoreactivity in brain sections,β-amyloid; [3],"lower in THP-treated brain region CA1, Cortex and Amygdala than vehicle treated-brain, but not in the subiculum; also recorded: lower in THP-treated 9-month old 3×Tg-AD mice hippocampus, cortex, and amygdala than in vehicle-treated brain, but not in subiculum"
same,"AD pathology markers (Aβ 6E10, tau HT7 immunoreactivity)","β-amyloid; 3×TgAD mice, 10 mg/kg s.c. thrice weekly for 3 months",reduced the level of AD pathology markers in 3×TgAD mouse hippocampal CA1
same,reduction of Aβ 6-mer 27 kDa band intensity,"β-amyloid; 9-month 3×Tg-AD mice, 10 mg/kg s.c. once a week for 6 months",35±10%
same,decrease of 56 kDa β-amyloid (Aβ*56) band intensity vs vehicle,"β-amyloid; 9-month old 3×Tg-AD mice, 10 mg/kg s.c. once a week for 6 months",25±4%
same,Aβ 6-mer 27 kDa band intensity vs vehicle,β-amyloid; 12-month old 3×Tg mice,no difference
same,decrease of 56 kDa β-amyloid (Aβ*56) band intensity vs vehicle,"β-amyloid; 12-month old 3×Tg-AD mice, 10 mg/kg s.c. once a week for 6 months",15±4%
same,decrease of 28 kDa β-amyloid oligomer band intensity vs vehicle,"β-amyloid; transdermal 10 mg/kg once a week for 6 months, 9-month old 3×Tg-AD mice, hippocampus",39±13%
same,expression of nuclear proliferation marker Ki-67,"hippocampal neurons; 250 nM, 72 hours, immunostaining",induces the expression of the nuclear proliferation marker Ki-67
same,expression of cdc2,"hippocampal neurons; 250 or 500 nM, 24 hrs, Western blot",increases expression of cell division control protein 2 (cdc2)
same,immunoreactivity of phosphorylated tau,phosphorylated tau; [2],decreases the immunoreactivity of phosphorylated tau
same,"AT8 immunoreactivity, immunoblotting",phosphorylated tau; [3],did not show a significantly reduction of AT8 immunoreactivity
same,AT8 immunostaining,phosphorylated tau; [3],"lower levels of immunoreactivity in THP-treated hippocampal CA1, cortex and amygdala"
same,responsiveness of the brain (desensitization),[1],still responsive to THP at 3 and 6 months
